Usually IC50 stands for the concentration that gives 50% inhibition.

Experimental findings from patent publication US20260317313A1, “DNA Polymerase Theta Inhibitors Containing Non-Saturated 5-Membered Heterocyclic Rings and Use Thereof” (Thomas Jefferson University, priority 2022, published 2026) are described below.

SMILES strings stand for the structures. Like-named read-outs stand apart in the source and are kept apart here.

This assay deals with T1, recombinant human Polq polymerase domain (residues 1792-2590) (Homo sapiens, UniProt O75417).
T1 sequence (O75417 1792-2590): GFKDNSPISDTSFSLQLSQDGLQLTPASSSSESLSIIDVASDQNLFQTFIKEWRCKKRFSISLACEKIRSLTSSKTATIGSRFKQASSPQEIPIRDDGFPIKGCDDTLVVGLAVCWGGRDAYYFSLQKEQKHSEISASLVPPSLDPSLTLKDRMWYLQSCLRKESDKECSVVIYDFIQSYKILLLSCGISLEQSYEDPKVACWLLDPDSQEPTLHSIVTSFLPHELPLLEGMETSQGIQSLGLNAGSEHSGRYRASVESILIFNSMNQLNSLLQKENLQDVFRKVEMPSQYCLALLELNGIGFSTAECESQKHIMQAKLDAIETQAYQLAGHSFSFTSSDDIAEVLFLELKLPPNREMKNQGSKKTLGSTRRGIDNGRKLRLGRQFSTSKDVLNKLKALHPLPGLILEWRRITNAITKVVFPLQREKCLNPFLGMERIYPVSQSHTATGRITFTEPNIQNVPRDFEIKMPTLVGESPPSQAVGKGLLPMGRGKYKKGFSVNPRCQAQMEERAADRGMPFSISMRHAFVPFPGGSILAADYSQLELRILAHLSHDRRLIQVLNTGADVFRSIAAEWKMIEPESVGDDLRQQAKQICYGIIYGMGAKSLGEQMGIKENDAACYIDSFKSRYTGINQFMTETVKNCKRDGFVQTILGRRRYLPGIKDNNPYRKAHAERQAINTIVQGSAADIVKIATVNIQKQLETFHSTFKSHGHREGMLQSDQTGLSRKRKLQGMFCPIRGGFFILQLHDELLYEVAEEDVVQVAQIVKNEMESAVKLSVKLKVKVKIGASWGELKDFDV
The experiment in a line: Cy5 fluorescence assay of Polq polymerase enzymatic activity. Type of assay: biochemical. As to conditions: 60 nM primer-template, 50 uM dNTPs, 37° C., 18 min, 2.5% DMSO, triplicate. Here is the method:
The following Cy5 fluorescence assay was used to measure the ability of compounds to inhibit Polq polymerase domain in vitro. The fluorescent based assay was performed as follows: 60 nM of the pre-annealed primer-template containing a 5′ Cy5 fluorophore conjugated template strand (SEQ ID NO 6: 5′-/5Cy5/ […] GGACAG-3′), a downstream complementary oligo conjugated with a 3′ Blackhole quencher (SEQ ID NO 7: 5′-CTAAGCTCACAGTG/3IAbRQSp/-3′) and a primer strand (SEQ ID NO 8: 5′-CTGTCCTGCATGATG-3′) was mixed with 50 uM 2′-deoxyribonucleoside triphosphates (dNTPs), 0.1 mg/mL Bovine serum albumin (BSA), 0.01% NP-40, 10% glycerol, 1 mM dithiothreitol (DTT), 10 mM MgCl2, 25 mM TrisHCl pH 7.8 in the presence of 2.5% DMSO with or without various concentrations (7-point dilution series) of Polq small molecule inhibitors represented by Formula I at 37° C. in a volume of 40 μL.

The mark [1] stands for this setting: Polq IC50, 5 nM Polq polymerase domain.
[2] abbreviates: 5 nM Polq polymerase domain, read-out: Polq IC50.

As to `[2H]C([2H])([2H])N(C(=O)Oc1c(-c2cn(C3C[C@@H](O)[C@@H](O)C3)nn2)cc(C(F)(F)F)cc1C(F)(F)F)c1ccc(F)cc1` (mixture of isomers) [Example 12, 2-{1-[(3R,4S)-3,4-dihydroxycyclopentyl]-1H-1,2,3-triazol-4-yl}-4,6-bis(trifluoromethyl)phenyl N-(4-fluorophenyl)-(methyl-d3)carbamate (Racemate)], the IC50 under setting [1] was 2.2 nM.
In the case of `[2H]C([2H])([2H])N(C(=O)Oc1c(-c2cn(C3C[C@@H](O)[C@@H](O)C3)nn2)cc(C(F)(F)F)cc1C(F)(F)F)c1ccc(F)cc1` (mixture of isomers) [Example 13, 2-{1-[(3R,4S)-3,4-dihydroxycyclopentyl]-1H-1,2,3-triazol-4-yl}-4,6-bis(trifluoromethyl)phenyl N-(4-fluorophenyl)-(methyl-d3)carbamate (Racemate)], the IC50 under setting [1] came to 4.6 nM.
As to `CN(C(=O)Oc1c(-c2cn(CCO)nn2)cc(C(F)(F)F)cc1C(F)(F)F)c1ccc(F)cc1` [Example 1], the IC50 (5 nM Polq polymerase domain) was 4.8 nM.
As for `CN(C(=O)Oc1c(-n2cc[nH]c2=O)cc(C(F)(F)F)cc1C(F)(F)F)c1ccc(F)cc1` [Example 2, 2-(2-oxo-2,3-dihydro-1H-imidazol-1-yl)-4,6-bis(trifluoromethyl)phenyl N-(4-fluorophenyl)-N-methylcarbamate], the IC50 under setting [1] was 4 nM.
On the same count and under the same terms, to `CN(C(=O)Oc1c(-c2cn(CCCCC(=O)Nc3cccc4c3C(=O)N(C3CCC(=O)NC3=O)C4=O)nn2)cc(C(F)(F)F)cc1C(F)(F)F)c1ccc(F)cc1` (stereo not drawn) [Example 3, 2-(1-(5-((2-(2,6-dioxopiperidin-3-yl)-1,3-dioxoisoindolin-4-yl)amino)-5-oxopentyl)-1H-1,2,3-triazol-4-yl)-4,6-bis(trifluoromethyl)phenyl (4-fluorophenyl) (methyl)carbamate] belongs 3.3 nM; to `CN(C(=O)Oc1c(-c2cn(CCCCCC(=O)Nc3cccc4c3C(=O)N(C3CCC(=O)NC3=O)C4=O)nn2)cc(C(F)(F)F)cc1C(F)(F)F)c1ccc(F)cc1` (stereo not drawn) [Example 4, 2-(1-(6-((2-(2,6-dioxopiperidin-3-yl)-1,3-dioxoisoindolin-4-yl)amino)-6-oxohexyl)-1H-1,2,3-triazol-4-yl)-4,6-bis(trifluoromethyl)phenyl (4-fluorophenyl) (methyl)carbamate], 5.5 nM; to `CN(C(=O)Oc1c(-c2cn(CCOCC(=O)Nc3cccc4c3C(=O)N(C3CCC(=O)NC3=O)C4=O)nn2)cc(C(F)(F)F)cc1C(F)(F)F)c1ccc(F)cc1` (stereo not drawn) [Example 5, 2-(1-(2-(2-((2-(2,6-dioxopiperidin-3-yl)-1,3-dioxoisoindolin-4-yl)amino)-2-oxoethoxy)ethyl)-1H-1,2,3-triazol-4-yl)-4,6-bis(trifluoromethyl)phenyl (4-fluorophenyl) (methyl)carbamate], 4.6 nM.
Still for that read-out and setting: to `CN(C(=O)Oc1c(-c2cn(CCOCCOCC(=O)Nc3cccc4c3C(=O)N(C3CCC(=O)NC3=O)C4=O)nn2)cc(C(F)(F)F)cc1C(F)(F)F)c1ccc(F)cc1` (stereo not drawn) [Example 6, 2-(1-(2-(2-(2-((2-(2,6-dioxopiperidin-3-yl)-1,3-dioxoisoindolin-4-yl)amino)-2-oxoethoxy)ethoxy)ethyl)-1H-1,2,3-triazol-4-yl)-4,6-bis(trifluoromethyl)phenyl (4-fluorophenyl)(methyl)carbamate] belongs 4 nM.
Take `CN(C(=O)Oc1c(-c2cn(CCCCCCCCC(=O)Nc3cccc4c3C(=O)N(C3CCC(=O)NC3=O)C4=O)nn2)cc(C(F)(F)F)cc1C(F)(F)F)c1ccc(F)cc1` (stereo not drawn) [Example 7, 2-(1-(9-((2-(2,6-dioxopiperidin-3-yl)-1,3-dioxoisoindolin-4-yl)amino)-9-oxononyl)-1H-1,2,3-triazol-4-yl)-4,6-bis(trifluoromethyl)phenyl (4-fluorophenyl) (methyl)carbamate]: the IC50 under setting [1] turned out to be 5.8 nM.
For the molecule `CN(C(=O)Oc1c(-c2cn(CCOCCOCCOCCOCC(=O)Nc3cccc4c3C(=O)N(C3CCC(=O)NC3=O)C4=O)nn2)cc(C(F)(F)F)cc1C(F)(F)F)c1ccc(F)cc1` (stereo not drawn) [Example 8, 2-(1-(14-((2-(2,6-dioxopiperidin-3-yl)-1,3-dioxoisoindolin-4-yl)amino)-14-oxo-3,6,9,12-tetraoxatetradecyl)-1H-1,2,3-triazol-4-yl)-4,6-bis(trifluoromethyl)phenyl (4-fluorophenyl) (methyl)carbamate], under setting [1], the IC50 is 4.2 nM.
Regarding `[2H]C([2H])([2H])N(C(=O)Oc1c(-n2cc[nH]c2=O)cc(C(F)(F)F)cc1C(F)(F)F)c1ccc(F)c(Cl)c1F` [Example 9, 2-(2-oxo-2,3-dihydro-1H-imidazol-1-yl)-4,6-bis(trifluoromethyl)phenyl 3-chloro-2,4-difluorophenyl(methyl-d3)carbamate], the half-maximal inhibitory concentration (IC50) under setting [1] came to 2.4 nM.
The same measure, in the same setting: for `[2H]C([2H])([2H])N(C(=O)Oc1c(-n2cc[nH]c2=O)cc(C(F)(F)F)cc1C(F)(F)F)c1ccc(F)cc1` [Example 10, 2-(2-oxo-2,3-dihydro-1H-imidazol-1-yl)-4,6-bis(trifluoromethyl)phenyl 4-fluorophenyl(methyl-d3)carbamate] the value was 2.9 nM; for `CN(C(=O)Oc1c(-c2cn(C3CC(O)C3)nn2)cc(C(F)(F)F)cc1C(F)(F)F)c1ccc(F)cc1` (stereo not drawn) [Example 11, 2-[1-(3-hydroxycyclobutyl)-1H-1,2,3-triazol-4-yl]-4,6-bis(trifluoromethyl)phenyl N-(4-fluorophenyl)-N-methylcarbamate], 2 nM.
Consider `CN(C(=O)Oc1c(-c2cn(CC3(O)CNC3)nn2)cc(C(F)(F)F)cc1C(F)(F)F)c1ccc(F)cc1` [Example 14, 2-{1-[(3-hydroxyazetidin-3-yl)methyl]-1H-1,2,3-triazol-4-yl}-4,6-bis(trifluoromethyl)phenyl N-(4-fluorophenyl)-N-methylcarbamate], for which the IC50 under setting [1] amounted to 2.3 nM.
`[2H]C([2H])([2H])N(C(=O)Oc1c(-c2cn(CC3(O)CNC3)nn2)cc(C(F)(F)F)cc1C(F)(F)F)c1ccc(F)cc1` [Example 15, 2-{1-[(3-hydroxyazetidin-3-yl)methyl]-1H-1,2,3-triazol-4-yl}-4,6-bis(trifluoromethyl)phenyl N-(4-fluorophenyl)-N-(methyl-d3)carbamate]: the IC50 under setting [1] stood at 1.9 nM.
With `[2H]C([2H])([2H])N(C(=O)Oc1c(-c2cn(CC3(O)CNC3)nn2)cc(C(F)(F)F)cc1C(F)(F)F)c1ccc(F)c(Cl)c1F` [Example 16, 2-{1-[(3-hydroxyazetidin-3-yl)methyl]-1H-1,2,3-triazol-4-yl}-4,6-bis(trifluoromethyl)phenyl N-(3-chloro-2,4-difluorophenyl)-N-(methyl-d3)carbamate], the concentration for half-maximal inhibition (IC50) under setting [1] came out at 1.5 nM.
Take `CN(C(=O)Oc1c(-c2cn(C3CC(O)C3)nn2)cc(C(F)(F)F)cc1C(F)(F)F)c1ccc(F)cc1` (stereo not drawn) [Example 17, 2-[1-(3-hydroxycyclobutyl)-1H-1,2,3-triazol-4-yl]-4,6-bis(trifluoromethyl)phenyl N-(4-fluorophenyl)-N-methylcarbamate]: under setting [2], the IC50 was found to be 1.5 nM.
For the molecule `CC(C)(C)OC(=O)n1ccn(-c2cc(C(F)(F)F)cc(C(F)(F)F)c2OC(=O)N(CC#N)c2ccc(F)cc2)c1=O` [Example 19, tert-butyl 3-(2-{[(cyanomethyl)(4-fluorophenyl)carbamoyl]oxy}-3,5-bis(trifluoromethyl)phenyl)-2-oxo-2,3-dihydro-1H-imidazole-1-carboxylate], the IC50 under setting [2] came out at 295 nM.
